By CC50 is commonly meant the concentration that lowers cell viability or growth by half. A high value points to lower toxicity to the cells. In general, EC50 refers to the concentration at which the effect is half-maximal. High values mean a less potent agent, low ones a more potent agent.

Structures are written as SMILES.

The values below come from ChEMBL document CHEMBL1142764, “Anti-HIV properties of cationic fullerene derivatives” (Bioorg Med Chem Lett, 2005).

One assay deals with CCRF-CEM. In words: Cytostatic activity against CEM cell culture. It counts as functional. Conditions: Homo sapiens.
In assay [1] the test system is Human immunodeficiency virus 1. In words: Effective concentration against HIV-1. The class given is functional, organism-based.
Assay [2] deals with Human immunodeficiency virus 2. The assay can be described thus: Effective concentration against HIV-2. It counts as functional, organism-based.

In the assay on CCRF-CEM, `CC12C[N+](C)(C)CC34C5c6cc7c8c9c6-c6c5c5c%10c%11c6C6c%12c%13c%14c%15c%16c%17c%18c(c%19c%20c%21c%22c%23c%24c(c%10c%10c(c%12%11)c%14c%11c%10c%24c%22c%10c%20c%18c%15c%10%11)C5C35C=%23CC%215C%1914)C(C%17=C8C1(C[N+](C)(C)CC%16%131)C96)C72` (configuration not stated) returned a CC50 of 12500 nM. The EC50 in assay [1] came out at 1080 nM; in assay [2], 2500 nM.
`CC1C2c3cc4/c5c6c7c8c9c%10c6c4c4c3C3=C6c%11c%12c%13c%14c%15c(c9c9c%16c8c(c8/c(c%17c%18c%19c(c(c%11c%11c%19c%19c%17c8c%16c(c%149)c%19c%13%11)C62)C1C%181C[N+](C)(C)C1)=C\C/C=5)C7)C%10C4C31C[N+](C)(C)CC%12%151` (configuration not stated) displayed a CC50 in the assay on CCRF-CEM of 2930 nM. Further, the half-maximal effective concentration (EC50) was 210 nM in assay [1] and 200 nM in assay [2].
In the same order, the values of `C[N+]1(C)CC23C4=C5c6c7c8c9c%10c%11c%12c%13c%14c%15c%16c%17c%18c%19c%20c%21c%22c%23c%24c(c6C6%25C[N+](C)(C)CC%236C%21C6C%21=C%20C%18C%18C%20=C%21C(C4c4c%20c(c-%13c(c42)C%12C9C73C1)C%18C%14%17)C6C5%25)c8c1c%10c(c%11%15)c2c%16c%19c%22c2c%241` (configuration not stated) are above 125000 nM, above 25000 nM and above 25000 nM.
The corresponding values for `CC1C2c3cc4c5c6c3C3=C7c8c9c%10c%11c%12c%13c%14c%15c(c-5c5c%16c%15c%15c%17c%18c%19c%20c%21c%22c(c(c8c8c%22c%22c%20c%18c%18c%15c%14c%11c%18c%22c%108)C72)C1C%211CC=%19C1(C%16%17)C1C[N+](C)(C)CC451)C%13C6C31C[N+](C)(C)CC9%121` (configuration not stated) are 9040 nM, 350 nM and 700 nM.
